Test results reported in patent EP3120851A1, “4-AMINO-6-(2,6-DICHLOROPHENYL)-8-METHYL-2-(PHENYLAMINO)-PYRIDO[2,3-D]PYRIMIDIN-7(8H)-ONE FOR TREATMENT OF SOLID CANCERS” (Pangaea Biotech S.L., priority 2015, dated 2017).
Where two headings read alike, the source gives them in different places.

Key:
Assay type in all cases: cell-based
435S = assay: MTT proliferation assay, single agent; conditions: Melanoma (melanocyte), BRAF V600E, 72 h, mean of several independent experiments
Procedure: The compound of formula (1) was tested using a Thiazolyl Blue Tetrazolium Bromide (MTT) proliferation assay in a panel of tumor cell lines of different origins.
All culture materials were obtained from Biological Industries (Kibbutz Beit Haemek, Israel) or Invitrogen (Paisley, Scotland, United Kingdom). The non-tumor cell lines HF and HACAT were provided by Vall d'Hebrón Hospital and GmbH, respectively. The PC9 naïve cell line was provided by Mayumi Ono and, the H3122, HCC78 and 11-18 by Daniel Costa. The PC9-GR1, PC9-GR2, PC9-GR3, PC9-GR4, PC9-GR5 and PC9-ER cell lines were derived in house by exposing the parental PC9 cell line to increasing concentrations of erlotinib (ER) or gefitinib (GR). The rest of the cell lines in which compound (1) was tested were purchased from ATCC (H23, H1975, H2228, A549, H460, Calu-6, H1650, SK-MES-1, EBC1, SNU1, AGS, N87, PC3, BxPC3, DLD1, HT29, SW48, SCC9,FaDu, AU565, Gingival, Prostate, SU-DHL-1 and A431). All cell lines were maintained in RPMI medium supplemented with 10% FBS, 50 µg/mL penicillin-streptomycin and 2 mM L-Glutamine. All cells were grown in a humidified atmosphere with 5% CO2 at 37°C.
Cell viability in response to single agent treatment was assessed by the Thiazolyl Blue Tetrazolium Bromide (MTT) (Sigma, St Louis, MO) assay. Cells from each cell line were seeded at 2000 to 10000 per well in 96-well plates. […] After treatment, cells were incubated with medium containing MTT (0.75 mg/mL in medium) for 1-2 h at 37°C. Culture medium with MTT was removed and formazan crystals reabsorbed in 100 µL DMSO (Sigma, St. Louis, MO). Cell viability was determined by measuring the absorbance at 492 nm, using a microplate reader (BioWhittaker, Walkersville, MD).
The IC50s shown are the mean of several independent experiments. Standard errors are also listed Table 2. SCC means squamous cell carcinoma, ADC means adenocarcinoma, GBM means glioblastoma.

H3122 Cells = assay: MTT cell viability assay, combinations (Chou-Talalay method); conditions: Homo sapiens
Procedure: (§1) The combinations comprising the compound of formula (1) were tested using an MTT proliferation assay in a panel of tumor cell lines of different origins. All culture materials were obtained from the sources described in Example 2. In the Chou-Talalay method, which is the standard, universally known methodology to determine drug interactions, the two drugs under study are maintained at a fixed ratio of IC50 single agent (drug 1):IC50 single agent (drug 2) while the concentration of total amount of drugs in the combination is varied and the 20% (IC20), 50% (IC50) and 80% (IC80) of growth inhibition of the combination is determined.
(§2) In the activity assays on cell lines the following terms are used: • IC50: Drug concentration at which 50% growth inhibition is achieved. • TKI IC50: The IC50 of the tyrosine kinase inhibitor as single agent. • Compound (1) IC50: The IC50 of compound (1) as single agent. • CI@IC20: The combination index of the combination consisting of drug 1 and drug 2 at a weight ratio equal to IC50 of drug 1:IC50 of drug 2 wherein said combination is used at a total amount that achieves 20% of growth inhibition. • CI@IC50: The combination index of the combination consisting of drug 1 and drug 2 at a weight ratio equal to IC50 of drug 1:IC50 of drug 2, wherein said combination is used at a total amount that achieves 50% of growth inhibition. • CI@IC80: The combination index of the combination consisting of drug 1 and drug 2 at a weight ratio equal to IC50 of drug 1:IC50 of drug 2, wherein said combination is used at a total amount that achieves 80% of growth inhibition. • Combination TKI IC50: The combination index at a tyrosine kinase inhibitor concentration that corresponds to the IC50 (single agent). • The combination index (CI) concept was introduced by Chou T.C. and Talalay P.(Chou TC, Talalay P. Adv Enzyme Regul 1984;22:27-55). The derived combination index equation for two drugs is (D = dosage or concentration): CI = ((D)1)/((Dx)1) + ((D)2)/((Dx)2) [formula] where (Dx)1 is the concentration of drug 1 "alone" that inhibits growth at a x% (i.e. (D50)1 is the concentration of drug 1 "alone" that inhibits growth at a 50%), (Dx)2 is the concentration of drug 2 "alone" that inhibits growth at a x%, (D)1 and (D)2 refer to the concentration of drug 1 and drug 2, respectively, in the combination, wherein the combination inhibits growth at the same x%. The CI Value quantitatively defines synergism (CI<1) (in particular, CI values of CI<0.7 indicates strong synergism, 0.7<CI<0.85 indicates moderate synergism, 0.85<CI<1 indicates slight synergism), additive effect (CI=1) and antagonism (CI>1). Based on the above equation, a plot of CI values at different effect levels (fa's) can be determined. Entering a series of "dose" ((D1), (D2), ((Dx)1 and (Dx)2) and % of growth inhibition (%x or effect (fa))" into an excel sheet for each drug alone and their combinations, the CI values at different x% (or fa levels) are obtained using the above equation. This plot is also called the Fa-CI plot or the Chou-Talalay plot.
(§3) Cell viability in response to combination treatment was assessed by the Thiazolyl Blue Tetrazolium Bromide (MTT) (Sigma, St Louis, MO) assay. Cells from each cell line were seeded at 2000 to 10000 per well in 96-well plates. […] Twenty-four hours after seeding, cells were exposed to compound (1), commercial drug or combinations thereof for 72 h. In the Chou-Talalay method, which is the standard, universally known methodology to determine drug interactions, the two drugs under study are maintained at a fixed ratio IC50 single agent (drug 1):IC50 single agent (drug 2).
(§4) After treatment, cells were incubated with medium containing MTT (0.75 mg/mL in medium) for 1-2 h at 37°C. Culture medium with MTT was removed and formazan crystals reabsorbed in 100 µL DMSO (Sigma, St. Louis, MO). Cell viability was determined by measuring the absorbance at 492 nm, using a microplate reader (BioWhittaker, Walkersville, MD).

H2228 Cells = assay: as above; conditions: Homo sapiens, NCI-H2228
Procedure: as §1, §2, §3, §4

HCC78 cells = assay: as above; conditions: Homo sapiens
Procedure: as §1, §2, §3, §4

SMILES: Cn1c(=O)c(-c2c(Cl)cccc2Cl)cc2c(N)nc(Nc3ccccc3)nc21 [Compound (1), 4-amino-6-(2,6-dichlorophenyl)-8-methyl-2-(phenylamino)-pyrido[2,3-d]pyrimidin-7(8H)-one]
- IC50 (435S): 1000 nM
- IC50 (H3122 Cells; NCI-H3122, 72 h, H3122 cells, compound (1) as single agent, 72 h, read-out: Compound (1) IC50): 1300 nM
- IC50 (H3122 Cells; NCI-H3122, H3122 cells, compound (1) in combination with Alectinib, read-out: Combination Compound (1) IC50): 240 nM
- IC50 (H3122 Cells; NCI-H3122, H3122 cells, compound (1) in combination with Crizotinib, read-out: Combination Compound (1) IC50): 500 nM
- IC50 (H2228 Cells; H2228 cells, compound (1) as single agent, 72 h, read-out: Compound (1) IC50): 809 nM
- IC50 (H2228 Cells; read-out: Combination Compound (1) IC50): 410 nM
- IC50 (HCC78 cells; HCC78, 72 h, HCC78 cells, compound (1) as single agent, 72 h, read-out: Compound (1) IC50): 800 nM
- IC50 (HCC78 cells; HCC78, HCC78 cells, compound (1) in combination with Crizotinib, read-out: Combination Compound (1) IC50): 430 nM
- IC50 (HCC78 cells; HCC78, HCC78 cells, compound (1) in combination with Foretinib, read-out: Combination Compound (1) IC50): 210 nM
